PubChem BioAssay AID248 (DTP/NCI, 2004)
Several values for one entry are separate records, joined by “and”; a condition that tells them apart may be missing. Equal values may be shown once. Toxic doses and inconclusive results are not listed. Cut-off read from the data, not from the text of the source: active = T/C of 150% or more; inactive = T/C below 125%.

Test system: L1210 leukemia ip in BDF1 mice, survival T/C
Experiment: NCI In Vivo Anticancer Drug Screen. Data for tumor model L1210 Leukemia (intraperitoneal) in B6D2F1 (BDF1) mice
Conditions: endpoint: mean survival time, higher = longer survival
Procedure, shortened: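 Transplantable tumor model; survival measured in treated vs vehicle control mice. Value = treated/control.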

[1] = dose: 6.25 mg/kg/injection, schedule: Q04DX003 (ip), vehicle: saline with Tween-80
[2] = dose: 50.0 mg/kg/injection, schedule: Q01DX001 (ip), vehicle: saline
[3] = dose: 400.0 mg/kg/injection, schedule: Q01DX001 (ip), vehicle: saline
[4] = dose: 100.0 mg/kg/injection, schedule: Q01DX001 (ip), vehicle: saline
[5] = dose: 200.0 mg/kg/injection, schedule: Q01DX001 (ip), vehicle: saline
[6] = dose: 100.0 mg/kg/injection, schedule: Q01DX009 (ip), vehicle: Klucel (hydroxypropylcellulose) (HPC)
[7] = dose: 100.0 mg/kg/injection, schedule: Q04DX003 (ip), vehicle: Klucel (hydroxypropylcellulose) (HPC)
[8] = dose: 200.0 mg/kg/injection, schedule: Q01DX009 (ip), vehicle: Klucel (hydroxypropylcellulose) (HPC)
[9] = dose: 200.0 mg/kg/injection, schedule: Q04DX003 (ip), vehicle: Klucel (hydroxypropylcellulose) (HPC)
[10] = dose: 400.0 mg/kg/injection, schedule: Q01DX009 (ip), vehicle: Klucel (hydroxypropylcellulose) (HPC)
[11] = dose: 400.0 mg/kg/injection, schedule: Q04DX003 (ip), vehicle: Klucel (hydroxypropylcellulose) (HPC)

Measured: T/C

CS(=O)(=O)OCCF
inactive: dose: 0.25 mg/kg/injection, schedule: Q01DX009 (ip), vehicle: saline 101 % of control | dose: 0.5 mg/kg/injection, schedule: Q01DX009 (ip), vehicle: saline 103 % of control | dose: 1.0 mg/kg/injection, schedule: Q01DX009 (ip), vehicle: saline 103 % of control | dose: 2.5 mg/kg/injection, schedule: Q01DX009 (ip), vehicle: carboxymethylcellulose (CMC) 103 % of control | dose: 2.5 mg/kg/injection, schedule: Q01DX009 (ip), vehicle: saline 103 % of control | dose: 5.0 mg/kg/injection, schedule: Q01DX009 (ip), vehicle: carboxymethylcellulose (CMC) 108 % of control | [1] 114 % of control | dose: 9.0 mg/kg/injection, schedule: Q01DX009 (ip), vehicle: saline 92 % of control | dose: 10.5 mg/kg/injection, schedule: Q01DX015 (ip), vehicle: saline 97 % of control | dose: 10.8 mg/kg/injection, schedule: Q01DX015 (ip), vehicle: saline 100 % of control | dose: 12.5 mg/kg/injection, schedule: Q01DX001 (ip), vehicle: acetone 103 % of control | dose: 12.5 mg/kg/injection, schedule: Q01DX009 (ip), vehicle: acetone 106 % of control | dose: 18.0 mg/kg/injection, schedule: Q01DX015 (ip), vehicle: saline 114 % of control | dose: 20.0 mg/kg/injection, schedule: Q01DX009 (ip), vehicle: carboxymethylcellulose (CMC) 87 % of control | dose: 25.0 mg/kg/injection, schedule: Q01DX001 (ip), vehicle: acetone 116 % of control | dose: 25.0 mg/kg/injection, schedule: Q01DX001 (ip), vehicle: saline 94 % of control | dose: 30.0 mg/kg/injection, schedule: Q01DX001 (ip), vehicle: saline 98 % of control | dose: 30.0 mg/kg/injection, schedule: Q01DX015 (ip), vehicle: saline 113 % of control and 91 % of control | dose: 44.0 mg/kg/injection, schedule: Q01DX001 (ip), vehicle: saline 106 % of control and 122 % of control | dose: 50.0 mg/kg/injection, schedule: Q01DX001 (ip), vehicle: acetone 103 % of control | dose: 50.0 mg/kg/injection, schedule: Q01DX001 (ip), vehicle: carboxymethylcellulose (CMC) 117 % of control | [2] 102 % of control and 109 % of control | dose: 200.0 mg/kg/injection, schedule: Q01DX001 (ip), vehicle: carboxymethylcellulose (CMC) 97 % of control | [3] 87 % of control

CC(C)(C)NC(=O)Nc1cccc(OC(=O)NC(C)(C)C)c1
inactive: dose: 100.0 mg/kg/injection, schedule: Q04DX003 (ip), vehicle: saline with Tween-80 90 % of control | dose: 200.0 mg/kg/injection, schedule: Q04DX003 (ip), vehicle: saline with Tween-80 87 % of control | dose: 400.0 mg/kg/injection, schedule: Q04DX003 (ip), vehicle: saline with Tween-80 87 % of control

CN(C)CCCNc1c2ccc(Cl)cc2nc2ccc(O)cc12
inactive: dose: 12.5 mg/kg/injection, schedule: Q04DX002 (ip), vehicle: saline 107 % of control | dose: 25.0 mg/kg/injection, schedule: Q04DX002 (ip), vehicle: saline 115 % of control

Cc1ccccc1C=O
inactive: [2] 97 % of control | [4] 94 % of control | [5] 94 % of control | [3] 94 % of control

C/C=C(/C)N(C(C)=O)N(C(C)=O)c1ccc([N+](=O)[O-])cc1[N+](=O)[O-]
inactive: dose: 100.0 mg/kg/injection, schedule: Q01DX009 (ip), vehicle: other 103 % of control | dose: 100.0 mg/kg/injection, schedule: Q04DX003 (ip), vehicle: saline 104 % of control | dose: 200.0 mg/kg/injection, schedule: Q01DX009 (ip), vehicle: other 101 % of control | dose: 200.0 mg/kg/injection, schedule: Q04DX003 (ip), vehicle: saline 105 % of control | dose: 400.0 mg/kg/injection, schedule: Q01DX009 (ip), vehicle: other 97 % of control | dose: 400.0 mg/kg/injection, schedule: Q04DX003 (ip), vehicle: saline 107 % of control

C(=C/c1ccc(/C=C/c2ccccc2)cc1)/c1ccccc1
inactive: [6] 98 % of control | [7] 98 % of control | [8] 93 % of control | [9] 104 % of control | [10] 95 % of control | [11] 90 % of control

O=NN(Cc1ccccc1)Cc1ccccc1
inactive: [2] 104 % of control | [4] 102 % of control | [5] 98 % of control | [3] 104 % of control

CCCCCCCCCCCCCCSCCCCCCSCCCCCCCCCCCCCC
inactive: dose: 100.0 mg/kg/injection, schedule: Q01DX001 (ip), vehicle: Klucel (hydroxypropylcellulose) (HPC) 98 % of control | dose: 200.0 mg/kg/injection, schedule: Q01DX001 (ip), vehicle: Klucel (hydroxypropylcellulose) (HPC) 93 % of control | dose: 400.0 mg/kg/injection, schedule: Q01DX001 (ip), vehicle: Klucel (hydroxypropylcellulose) (HPC) 94 % of control

COc1ccc(C=NCCN=Cc2ccc(OC)cc2OC)c(OC)c1
inactive: dose: 6.25 mg/kg/injection, schedule: Q01DX009 (ip), vehicle: saline with Tween-80 97 % of control | [1] 98 % of control | dose: 12.5 mg/kg/injection, schedule: Q01DX009 (ip), vehicle: saline with Tween-80 87 % of control | dose: 12.5 mg/kg/injection, schedule: Q04DX003 (ip), vehicle: saline with Tween-80 91 % of control | dose: 25.0 mg/kg/injection, schedule: Q01DX009 (ip), vehicle: saline with Tween-80 87 % of control | dose: 25.0 mg/kg/injection, schedule: Q04DX003 (ip), vehicle: saline with Tween-80 95 % of control

Nc1nc(N)nc(-c2ccncc2)n1
inactive: dose: 50.0 mg/kg/injection, schedule: Q01DX009 (ip), vehicle: saline with Tween-80 119 % of control

CCCCCCCCCCCCCCCCNS(=O)(=O)c1ccc(NN)cc1
inactive: dose: 50.0 mg/kg/injection, schedule: Q01DX009 (ip), vehicle: Klucel (hydroxypropylcellulose) (HPC) 98 % of control | [6] 99 % of control | [7] 97 % of control | [8] 91 % of control | [9] 95 % of control

Cc1ccc(S(=O)(=O)N2CCN(S(=O)(=O)c3ccc(C)c([N+](=O)[O-])c3)CC2)cc1[N+](=O)[O-]
inactive: dose: 3.12 mg/kg/injection, schedule: Q01DX009 (ip), vehicle: clinical formulation 103 % of control | dose: 6.25 mg/kg/injection, schedule: Q01DX009 (ip), vehicle: clinical formulation 100 % of control | dose: 6.25 mg/kg/injection, schedule: Q04DX003 (ip), vehicle: clinical formulation 103 % of control | dose: 12.5 mg/kg/injection, schedule: Q01DX009 (ip), vehicle: clinical formulation 107 % of control | dose: 12.5 mg/kg/injection, schedule: Q04DX003 (ip), vehicle: clinical formulation 108 % of control | dose: 25.0 mg/kg/injection, schedule: Q01DX009 (ip), vehicle: clinical formulation 115 % of control | dose: 25.0 mg/kg/injection, schedule: Q04DX003 (ip), vehicle: clinical formulation 116 % of control | dose: 50.0 mg/kg/injection, schedule: Q01DX009 (ip), vehicle: clinical formulation 95 % of control | dose: 50.0 mg/kg/injection, schedule: Q04DX003 (ip), vehicle: clinical formulation 124 % of control

Cc1ccc(S(=O)(=O)OCC2C(COS(=O)(=O)c3ccc(C)cc3)C3CCC2C3C(c2ccccc2)c2ccccc2)cc1 (centres undefined)
inactive: [6] 103 % of control | [7] 98 % of control | [8] 94 % of control | [9] 102 % of control | [10] 111 % of control | [11] 96 % of control
